# Measured values: patent US20160281125A1, “ANTIMICROBIAL COMPOUND SUSCEPTIBILITY TEST” (priority 2013, published 2016)
# Assays:
# K. pneumo KPC 1705 = assay: Selective lysis test, OD600 turbidity (Example 1); format: cell-based, Klebsiella pneumoniae
# Description: (§1) An isolated colony from an overnight Tryptocase Soy Agar (TSA) plate of each bacterial strain was suspended in 1 ml Tryptocasc Soy Broth (TSB) in a 5 ml BD polystyrene round bottom tube. TSB cultures were incubated shaking at 37° C. overnight. Ten of the overnight culture was inoculated into lml TSB and incubated shaking at 37° C. for three hours. Two […] aliquots of each log-phase culture were then transferred to two 2 ml Eppendorf microcentrifuge tubes. One tube contained 5000 of Normal Saline (BD); the second tube contained 5000 Normal Saline with meropenem at 10 μg/ml (final concentration of meropenem of 6.67 10 μg/ml). Tubes were inverted and then incubated at 37° C. stagnant for thirty minutes. Then […] of lysis buffer (0.5% SDS in PSB) (final concentration of SDS of 0.125%) was added to each tube and the tubes were vortexed for 5 seconds. Post incubation, all tubes were spun at 10000 G for 5 minutes. Supernatant was decanted and the pellet resuspended in Normal Saline. Tubes were vortexed again. OD600 was measured using Eppendorf uvettes in a spectrophotometer. The delta between the OD600 of the normal saline control and the OD600 for the test sample exposed to meropenem in normal saline was used to determine susceptibility of the bacterial strain to meropenem.
# (§2) The tested resistant strains were Klebsiella pneumoniae carbapenemase (KPC)-producing bacteria (abbreviated “KPC”), KPC-producing Klebsiella oxytoca (abbreviated “KPC K. oxy), and Klebsiella pneumoniae producing Metallo-beta-lactamase-1 (NDM-1) (abbreviated “NDM”).
# K. pneumo KPC 24605 = assay: Selective lysis test, OD600 turbidity (Example 1); format: cell-based, Klebsiella pneumoniae
# Description: as §1, §2
# [1] = test system: E. coli strain BAA-197 ESβL; assay: Selective lysis test, BacUni QuickFISH staining (Example 3); format: cell-based; details: FIG. 1; E. coli BAA-197 ESβL; meropenem 10 μg/ml, 30 min, SDS lysis
# Text: (§3) An alternative to the spectrophotometer-based measurement of changes in turbidity for measuring cell lysis following treatment with the cell lysis conditions in Examples 1 and 2 is to stain samples using a stain that distinguishes between intact cells and lysed cells. In this example staining with BacUni QuickFISH™ was used to identify intact (i.e., non-lysed) cells. BacUN1 is a universal bacteria PNA probe that binds to an rRNA sequence present in most Gram-positive and Gram-negative bacteria. The PNA probe binds to universal rRNA in intact bacterial cells and the entire cell will appears green with fluorescent microscopy. If the bacterial cell had been lysed then the rRNA target would have been released from the bacterial cell and even of somewhat labeled it would not appear as a fluorescent bacterial cell.
# (§4) An isolated colony from an overnight Tryptocase Soy Agar (TSA) plate of each bacteria was suspended in 1 ml Tryptocase Soy Broth (TSB) in a 5 ml BD polystyrene round bottom tube. TSB cultures were incubated at 37° C. overnight. Ten μl of overnight culture was inoculated into 1 ml TSB and incubated shaking at 37° C. for three hours. Two 250 μl aliquots of each log-phase culture was transferred to two 2 ml Eppendorf microcentrifuge tubes. One tube contained 500 μl of Normal Saline (BD); the second tube contained 500 μl Normal Saline with meropenem at 10 μg/ml. Tubes were inverted and then incubated at 37° C. stagnant for thirty minutes. Then […] (0.5% SDS in PSB) was added to each tube and the tubes were vortexed for 5 seconds. Post incubation, the entire culture was filtered through a 1 uM polycarbonate 18 mm filter. The filter was transferred to a plain glass slide and placed on a 55° C. heat block. Then 2 drops of 100% methanol were added to adhere the filter to the slide. Then 30 μl of BacUni QuickFISH™ hybridization buffer was added to the slide and a 50×22 mm coverslip was applied. The slide was then incubated at 55° C. for 15 minutes. The slide was viewed on fluorescence microscope using 60× oil immersion on Dual TxR/FITC. Images were taken with a 1 second exposure.
# E. coli strain 25922 = assay: as above; format: cell-based; details: FIG. 3; E. coli 25922; meropenem 10 μg/ml, 30 min, SDS lysis
# Text: as §3, §4
# E. coli strain 23858 = assay: as above; format: cell-based; details: FIG. 2; E. coli 23858; meropenem 10 μg/ml, 30 min, SDS lysis
# Text: as §3, §4
# E. coli strain 35218 = assay: as above; format: cell-based; details: FIG. 3; E. coli 35218; meropenem 10 μg/ml, 30 min, SDS lysis
# Text: as §3, §4
# K. oxy KPC 46532 = assay: Selective lysis test, OD600 turbidity (Example 1); format: cell-based, Klebsiella oxytoca
# Description: as §1, §2
# K. pneumo 13882 (NDM−) = assay: Selective lysis test, flow cytometry cell count (Example 5); format: cell-based, K. pneumoniae; parameters: key to R or S: R: meropenem resistant strain; S: meropenem sensitive strain
# Description: (§5) An isolated colony from overnight Tryptocase Soy Agar (TSA) plate for each bacteria was suspended in 1 ml Tryptocase Soy Broth (TSB) in a 5 ml BD polystyrene round bottom tube. TSB cultures were incubated at 37° C. overnight. Ten μl of overnight culture was inoculated into 1 ml TSB and incubated shaking at 37° C. for three hours. Two 250 μl aliquots of each log-phase culture were transferred to two 2 ml Eppendorf microcentrifuge tubes. One tube contained 500 μl of Normal Saline (BD); the second tube contained 504.1 Normal Saline with meropenem at 10 μg/ml. Tubes were inverted then incubated at 37° C. stagnant for thirty minutes. An aliquot was removed at this point for flow cytometry measurement of the total cell count. Then 250 μl lysis buffer (0.5% SDS in PSB) was added to each tube and each tube was vortexed for 5 seconds. Post incubation, all tubes were spun at 10000 G for 5 minutes. Supernatant was decanted and the pellet resuspended in Normal Saline. Tubes were vortexed.
# (§6) Re-suspended pellets were then diluted 20 times into a solution of 10 mM Tris-HCl pH=7.6, containing 2.5 μM SYTO 9 (stain permeable to all bacterial cells). Stained bacterial cells were analyzed by flow cytometry using the Guava EasyCyte™ Mini System equipped with a 488 nm diode laser, capillary flow cell, forward and side scatter detectors and fluorescence (green, yellow and red) detectors. Flow cytometry dot plots were acquired with CytoSoft (Guava ExpressPlus) software and cell counts were obtained.
# K. pneumo BAA2146 (NDM+) = assay: as above; format: cell-based, K. pneumoniae; parameters: key to R or S: R: meropenem resistant strain; S: meropenem sensitive strain
# Description: as §5, §6
# [2] = OD600 vs control without meropenem
# [3] = meropenem 10 μg/ml, 30 min, SDS lysis buffer + vortex
# [4] = K. pneumo 13882 (NDM−), 10 μg/ml Meropenem, Post-lysis + spin
# [5] = K. pneumo BAA2146 (NDM+), 10 μg/ml Meropenem, Post-lysis + spin
compound,measurement,setting,value
C[C@@H](O)[C@H]1C(=O)N2C(C(=O)O)=C(S[C@@H]3CN[C@H](C(=O)N(C)C)C3)[C@H](C)[C@H]12 [meropenem],R or S,K. pneumo KPC 1705,R
same,% Change,K. pneumo KPC 1705; [2],−32%
same,Mero OD600,K. pneumo KPC 1705; [3],1.65
same,R or S,K. pneumo KPC 24605,R
same,% Change,K. pneumo KPC 24605; [2],6%
same,Mero OD600,K. pneumo KPC 24605; [3],2.0363
same,"number of BacUni QuickFISH stained cells, treated vs not treated",[1],significant reduction in the number of stained cells
same,"number of BacUni QuickFISH stained cells, treated vs not treated",E. coli strain 25922,significant reduction in the number of stained cells
same,"number of BacUni QuickFISH stained cells, treated vs not treated",E. coli strain 23858,significant reduction in the number of stained cells
same,"number of BacUni QuickFISH stained cells, treated vs not treated",E. coli strain 35218,significant reduction in the number of stained cells
same,R or S,K. oxy KPC 46532,S (a percentage change of greater than about 85% indicates a strain is susceptible)
same,% Change,K. oxy KPC 46532; [2],71%
same,Mero OD600,K. oxy KPC 46532; [3],0.259
same,Cell Number/ml,K. pneumo 13882 (NDM−); [4],241000 mL⁻¹
same,R or S,K. pneumo 13882 (NDM−); [4],S
same,Cell Number/ml,"K. pneumo 13882 (NDM−); K. pneumo 13882 (NDM−), 10 μg/ml Meropenem, Pre-lysis",2.38e+06 mL⁻¹
same,reduction in cell number after lysis and centrifugation,"K. pneumo 13882 (NDM−); K. pneumoniae 13882 (NDM−), meropenem treated sample, post-lysis vs pre-lysis",90%
same,Cell Number/ml,K. pneumo BAA2146 (NDM+); [5],2.83e+06 mL⁻¹
same,R or S,K. pneumo BAA2146 (NDM+); [5],R
same,Cell Number/ml,"K. pneumo BAA2146 (NDM+); K. pneumo BAA2146 (NDM+), 10 μg/ml Meropenem, Pre-lysis",3.04e+06 mL⁻¹
same,reduction in cell number after lysis and centrifugation,"K. pneumo BAA2146 (NDM+); K. pneumoniae BAA2146 (NDM+), meropenem treated sample, post-lysis vs pre-lysis",7%
